Results reported in patent publication US11564948B2, “Therapeutic methods using erythrocytes” (Sangui Bio Pty Ltd, priority 2015, dated 2023).

Test system: MIF
Assay: RBCs or RBC ghosts cultured in plasma with heparin or EDTA, MIF ELISA (Example 1)
Assay type: cell-based, human
Conditions: addition of EDTA to the cell suspensions, compared with heparin treatment; FIG. 2
Description: To determine if the presence of anticoagulants alter the capacity for protein binding to red blood cells, these cells were incubated in plasma with or without heparin or EDTA. Whole blood from healthy volunteers was collected into EDTA vacutainers (3 mg/mL). Plasma was collected from blood collected into hepain and citrate vacutainers. […] The ghosts were then isolated by centrifugation (16,000 g, 20 minutes) and were resuspended in PBS. […] The red blood cells or ghosts were then cultured for 0, 1, or 18 hours at 37° C. As controls, EDTA plasma containing heparin or EDTA were culture under the same conditions. Following incubation, the cell free supernatants was collected and stored at −80° C. Prior to analysis, samples were subjected to ×3 freeze-thaw cycles. MIF concentration of the samples was quantified using a MIF ELISA.

With O=C(O)CN(CCN(CC(=O)O)CC(=O)O)CC(=O)O [EDTA, ethylenediaminetetraacetic acid] the “MIF in the RBC lysates and ghosts 'lysates'” value was “substantially less”.
